Literature values, collected in US8592434B2, “Mucoadhesive buccal tablets for the treatment of orofacial herpes” (BioAlliance Pharma SA, priority 2009, dated 2013).

Details: oral treatment, irrespective of the dosage and duration

| Structure (SMILES) | Headaches, treated patients |
| --- | --- |
| CC(C)[C@H](N)C(=O)OCCOCn1cnc2c(=O)[nH]c(N)nc21 [valacyclovir, L-valine ester of acyclovir] | about 10% |
| CC(=O)OCC(CCn1cnc2cnc(N)nc21)COC(C)=O [famciclovir, diacetyl ester of 6-deoxy pencyclovir] | about 10% |
